Where two headings read alike, the source gives them in different places. One block for each compound: values may come before it.
System: A2780 cells
Assay: In-vitro cell proliferation assay (SRB, 72 hours)
Type: cell-based
Conditions: Homo sapiens, read-out: Cell Proliferation (IC50)
[1] = A2780, 72 h, A2780 cells, 72 hours, SRB

SMILES: O=C(CN1CCOCC1)N1CCC2(CC1)CC2CNC(=O)N1Cc2ccncc2C1 (stereo not shown) [Example 198, N-[[6-(2-morpholinoacetyl)-6-azaspiro[2.5]octan-2-yl]methyl]-1,3-dihydropyrrolo[3,4-c]pyridine-2-carboxamide]
IC50 [1]: 61.8 nM

SMILES: CC(C)(C)NC(=O)N1CCC2(CC1)CC2CNC(=O)c1cc2cnccc2[nH]1 (stereo not shown) [Example 203, N-[[6-(tert-butylcarbamoyl)-6-azaspiro[2.5]octan-2-yl]methyl]-1H-pyrrolo[3,2-c]pyridine-2-carboxamide]
IC50 [1]: 2000 nM

SMILES: COC(=O)C(C)(C)OC(=O)N1CCC2(CC1)CC2CNC(=O)c1cc2ccncc2o1 (stereo not shown) [Example 205, (2-methoxy-1,1-dimethyl-2-oxo-ethyl) 2-[(furo[2,3-c]pyridine-2-carbonylamino)methyl]-6-azaspiro[2.5]octane-6-carboxylate]
IC50 [1]: 130 nM

SMILES: N#Cc1cccc(CC(=O)N2CCC3(CC2)CC3CNC(=O)c2cc3cnccc3[nH]2)c1 (stereo not shown) [Example 206, N-[[6-[2-(3-cyanophenyl)acetyl]-6-azaspiro[2.5]octan-2-yl]methyl]-1H-pyrrolo[3,2-c]pyridine-2-carboxamide]
IC50 [1]: 2000 nM

SMILES: N#Cc1ccc(CC(=O)N2CCC3(CC2)CC3CNC(=O)N2Cc3ccncc3C2)cc1 (stereo not shown) [Example 207, N-[[6-[2-(4-cyanophenyl)acetyl]-6-azaspiro[2.5]octan-2-yl]methyl]-1,3-dihydropyrrolo[3,4-c]pyridine-2-carboxamide]
IC50 (A2780 cells, 72 hours, SRB): 136 nM

SMILES: O=C(NCc1ccccc1)N1CCC2(CC1)CC2CNC(=O)N1Cc2ccncc2C1 (stereo not shown) [Example 210, N-[[6-(benzylcarbamoyl)-6-azaspiro[2.5]octan-2-yl]methyl]-1,3-dihydropyrrolo[3,4-c]pyridine-2-carboxamide]
IC50 [1]: 316 nM

SMILES: O=C(NCC1CC12CCN(S(=O)(=O)Cc1ccccc1)CC2)N1Cc2ccncc2C1 (stereo not shown) [Example 211, N-[(6-benzylsulfonyl-6-azaspiro[2.5]octan-2-yl)methyl]-1,3-dihydropyrrolo[3,4-c]pyridine-2-carboxamide]
IC50 [1]: 131 nM

SMILES: CC(C)(CO)OC(=O)N1CCC2(CC1)CC2CNC(=O)c1cc2ccncc2o1 (stereo not shown) [Example 215, (2-hydroxy-1,1-dimethyl-ethyl) 2-[(furo[2,3-c]pyridine-2-carbonylamino)methyl]-6-azaspiro[2.5]octane-6-carboxylate]
IC50 [1]: 65.8 nM

SMILES: N#Cc1ccc(CC(=O)N2CCC3(CC2)CC3CNC(=O)c2cc3cnccc3[nH]2)cc1 (stereo not shown) [Example 216, N-[[6-[2-(4-cyanophenyl)acetyl]-6-azaspiro[2.5]octan-2-yl]methyl]-1H-pyrrolo[3,2-c]pyridine-2-carboxamide]
IC50 [1]: 1340 nM

SMILES: CC1(OC(=O)N2CCC3(CC2)CC3CNC(=O)N2Cc3ccncc3C2)CCC1 (stereo not shown) [Example 228, (1-methylcyclobutyl) 2-[(1,3-dihydropyrrolo[3,4-c]pyridine-2-carbonylamino)methyl]-6-azaspiro[2.5]octane-6-carboxylate]
IC50 (A2780, 72 h): 4.74 nM

SMILES: Cc1cccnc1C(=O)N1CCC2(CC1)CC2CNC(=O)c1cc2ccncc2o1 (stereo not shown) [Example 231, N-[[6-(3-methylpyridine-2-carbonyl)-6-azaspiro[2.5]octan-2-yl]methyl]furo[2,3-c]pyridine-2-carboxamide]
IC50 [1]: 516 nM

SMILES: Cc1cnccc1C(=O)N1CCC2(CC1)CC2CNC(=O)c1cc2ccncc2o1 (stereo not shown) [Example 232, N-[[6-(3-methylpyridine-4-carbonyl)-6-azaspiro[2.5]octan-2-yl]methyl]furo[2,3-c]pyridine-2-carboxamide]
IC50 [1]: 207 nM

SMILES: Cc1ccc(C(=O)N2CCC3(CC2)CC3CNC(=O)c2cc3ccncc3o2)cn1 (stereo not shown) [Example 233, N-[[6-(6-methylpyridine-3-carbonyl)-6-azaspiro[2.5]octan-2-yl]methyl]furo[2,3-c]pyridine-2-carboxamide]
IC50 [1]: 288 nM

SMILES: Cc1ccnc(C(=O)N2CCC3(CC2)CC3CNC(=O)c2cc3ccncc3o2)c1 (stereo not shown) [Example 235, N-[[6-(4-methylpyridine-2-carbonyl)-6-azaspiro[2.5]octan-2-yl]methyl]furo[2,3-c]pyridine-2-carboxamide]
IC50 [1]: 1560 nM

SMILES: O=C(NCC1CC12CCN(C(=O)c1cccc3[nH]cnc13)CC2)c1cc2ccncc2o1 (stereo not shown) [Example 236, N-[[6-(1H-benzimidazole-4-carbonyl)-6-azaspiro[2.5]octan-2-yl]methyl]furo[2,3-c]pyridine-2-carboxamide]
IC50 [1]: 47.3 nM

SMILES: O=C(NCC1CC12CCN(C(=O)c1cc3cccn3cn1)CC2)c1cc2ccncc2o1 (stereo not shown) [Example 237, N-[[6-(pyrrolo[1,2-c]pyrimidine-3-carbonyl)-6-azaspiro[2.5]octan-2-yl]methyl]furo[2,3-c]pyridine-2-carboxamide]
IC50 [1]: 166 nM

SMILES: O=C(NCC1CC12CCN(C(=O)c1ccc3[nH]nnc3c1)CC2)c1cc2ccncc2o1 (stereo not shown) [Example 238, N-[[6-(1H-benzotriazole-5-carbonyl)-6-azaspiro[2.5]octan-2-yl]methyl]furo[2,3-c]pyridine-2-carboxamide]
IC50 [1]: 910 nM

SMILES: O=C(NCC1CC12CCN(C(=O)c1ccc3[nH]cnc3c1)CC2)c1cc2ccncc2o1 (stereo not shown) [Example 241, N-[[6-(1H-benzimidazole-5-carbonyl)-6-azaspiro[2.5]octan-2-yl]methyl]furo[2,3-c]pyridine-2-carboxamide]
IC50 [1]: 70.2 nM

SMILES: N#Cc1ccc(C(=O)N2CCC3(CC2)CC3CNC(=O)c2cc3ccncc3o2)cc1 (stereo not shown) [Example 242, N-[[6-(4-cyanobenzoyl)-6-azaspiro[2.5]octan-2-yl]methyl]furo[2,3-c]pyridine-2-carboxamide]
IC50 [1]: 713 nM

SMILES: N#Cc1cccc(C(=O)N2CCC3(CC2)CC3CNC(=O)c2cc3ccncc3o2)c1 (stereo not shown) [Example 243, N-[[6-(3-cyanobenzoyl)-6-azaspiro[2.5]octan-2-yl]methyl]furo[2,3-c]pyridine-2-carboxamide]
IC50 [1]: 434 nM

SMILES: O=C(NCC1CC12CCN(C(=O)c1ccc(OC(F)(F)F)cc1)CC2)c1cc2ccncc2o1 (stereo not shown) [Example 247, N-[[6-[4-(trifluoromethoxy)benzoyl]-6-azaspiro[2.5]octan-2-yl]methyl]furo[2,3-c]pyridine-2-carboxamide]
IC50 [1]: 2000 nM

Now from value to compound:

IC50 [1]: 24.7 nM
SMILES: CC(C)(C)OC(=O)N1CCC2(CC1)CC(CNC(=O)N1Cc3ccncc3C1)C2 [Example 200, tert-butyl 2-[(1,3-dihydropyrrolo[3,4-c]pyridine-2-carbonylamino)methyl]-7-azaspiro[3.5]nonane-7-carboxylate]

IC50 [1]: 27.9 nM
SMILES: O=C(Cc1cc(F)cc(F)c1)N1CCC2(CC1)CC2CNC(=O)N1Cc2ccncc2C1 (stereo not shown) [Example 201, N-[[6-[2-(3,5-difluorophenyl)acetyl]-6-azaspiro[2.5]octan-2-yl]methyl]-1,3-dihydropyrrolo[3,4-c]pyridine-2-carboxamide]

IC50 [1]: 28.2 nM
SMILES: O=C(Cc1cccc(C(F)(F)F)c1)N1CCC2(CC1)CC2CNC(=O)N1Cc2ccncc2C1 (stereo not shown) [Example 202, N-[[6-[2-[3-(trifluoromethyl]phenyl]acetyl]-6-azaspiro[2.5]octan-2-yl]methyl]-1,3-dihydropyrrolo[3,4-c]pyridine-2-carboxamide]

IC50 [1]: 26.1 nM
SMILES: O=C(NCC1CC12CCN(C(=O)Nc1ccccc1)CC2)N1Cc2ccncc2C1 (stereo not shown) [Example 208, N-[[6-(phenylcarbamoyl)-6-azaspiro[2.5]octan-2-yl]methyl]-1,3-dihydropyrrolo[3,4-c]pyridine-2-carboxamide]

IC50 [1]: 25.4 nM
SMILES: Cn1cc(C(=O)N2CCC3(CC2)CC3CNC(=O)N2Cc3ccncc3C2)cn1 (stereo not shown) [Example 221, N-[[6-(1-methylpyrazole-4-carbonyl)-6-azaspiro[2.5]octan-2-yl]methyl]-1,3-dihydropyrrolo[3,4-c]pyridine-2-carboxamide]

IC50 [1]: 11.7 nM
SMILES: CCn1nc(C)c(C(=O)N2CCC3(CC2)CC3CNC(=O)c2cc3c(o2)C=NCC3)c1C (stereo not shown) [Example 222, N-[[6-(1-isopropyl-3,5-dimethyl-pyrazole-4-carbonyl)-6-azaspiro[2.5]octan-2-y]methyl]furo[2,3-c]pyridine-2-carboxamide]

IC50 [1]: 1.92 nM
SMILES: Cc1nn(-c2ccc(F)cc2)c(C)c1C(=O)N1CCC2(CC1)CC2CNC(=O)c1cc2ccncc2o1 (stereo not shown) [Example 223, N-[[6-[1-(4-fluorophenyl)-3,5-dimethyl-pyrazole-4-carbonyl]-6-azaspiro[2.5]octan-2-yl]methyl]furo[2,3-c]pyridine-2-carboxamide]

IC50 [1]: 18.4 nM
SMILES: O=C(CCN1CCOCC1)N1CCC2(CC1)CC2CNC(=O)N1Cc2ccncc2C1 (stereo not shown) [Example 229, N-[[6-(3-morpholinopropanoyl)-6-azaspiro[2.5]octan-2-yl)methyl]-1,3-dihydropyrrolo[3,4-c]pyridine-2-carboxamide]

IC50 [1]: 29.9 nM
SMILES: O=C(NCC1CC12CCN(C(=O)C(F)(F)c1ccccc1)CC2)N1Cc2ccncc2C1 (stereo not shown) [Example 230, N-[[6-(2,2-difluoro-2-phenyl-acetyl)-6-azaspiro[2.5]octan-2-yl]methyl]-1,3-dihydropyrrolo[3,4-c]pyridine-2-carboxamide]

IC50 [1]: 29.7 nM
SMILES: O=C(NCC1CC12CCN(C(=O)c1ccnc3[nH]ccc13)CC2)c1cc2ccncc2o1 (stereo not shown) [Example 239, N-[[6-(1H-pyrrolo[2,3-b]pyridine-4-carbonyl)-6-azaspiro[2.5]octan-2-yl]methyl]furo[2,3-c]pyridine-2-carboxamide]

IC50 [1]: 18.7 nM
SMILES: O=C(NCC1CC12CCN(C(=O)c1cccc3[nH]ncc13)CC2)c1cc2ccncc2o1 (stereo not shown) [Example 240, N-[[6-(1H-indazole-4-carbonyl)-6-azaspiro[2.5]octan-2-yl]methyl]furo[2,3-c]pyridine-2-carboxamide]

IC50 [1]: 12.6 nM
SMILES: O=C(NCC1CC12CCN(C(=O)c1ccc(CN3CCOCC3)cc1)CC2)c1cc2ccncc2o1 (stereo not shown) [Example 245, N-[[6-[4-(morpholinomcthyl)benzoyl]-6-azaspiro[2.5]octan-2-yl]methyl]furo[2,3-c]pyridine-2-carboxamide]

IC50 [1]: 13.8 nM
SMILES: Cc1nccn1Cc1ccc(C(=O)N2CCC3(CC2)CC3CNC(=O)c2cc3ccncc3o2)cc1 (stereo not shown) [Example 246, N-[[6-[4-[(2-methylimidazol-1-yl)methyl]benzoyl]-6-azaspiro[2.5]octan-2-yl]methyl]furo[2,3-c]pyridine-2-carboxamide]
